Assays:
Type in all cases: in vivo
[1] = system: yellow fever mosquito (Aedes aegypti); experiment: whole plant or invertebrate; conditions: 48 h, larval mortality visually assessed after 2 days, read-out: mortality in comparison with untreated controls
Description: Example B1: Action on Yellow Fever Mosquito (Aedes aegypti)
For evaluating control of yellow fever mosquito (Aedes aegypti) the test unit consisted of 96-well-microtiter plates containing 200 μl of tap water per well and 5-15 freshly hatched A. aegypti larvae.
The active compounds were formulated using a solution containing 75% (v/v) water and 25% (v/v) DMSO. Different concentrations of formulated compounds or mixtures were sprayed onto the insect diet at 2.5 μl, using a custom built micro atomizer, at two replications.
After application, microtiter plates were incubated at 28+1° C., 80+5% RH for 2 days. Larval mortality was then visually assessed.

[2] = system: Silverleaf Whitefly (Bemisia argentifoli) (Adults); experiment: Action on silverleaf whitefly (Bemisia argentifoli) adults on sprayed cotton plants; conditions: Bemisia argentifolii, 72 h, mortality 3 days after treatment, read-out: mortality in comparison with untreated controls
Description: Example B4: Action on Silverleaf Whitefly (Bemisia argentifoli) (Adults)
The active compounds were formulated by a Tecan liquid handler in 100% cyclohexanone as a 10,000 ppm solution supplied in tubes. The 10,000 ppm solution was serially diluted in 100% cyclohexanone to make interim solutions. These served as stock solutions for which final dilutions were made by the Tecan in 50% acetone:50% water (v/v) into 5 or 10 ml glass vials. A nonionic surfactant (Kinetic®) was included in the solution at a volume of 0.01% (v/v). The vials were then inserted into an automated electrostatic sprayer equipped with an atomizing nozzle for application to plants/insects.
Cotton plants at the cotyledon stage (one plant per pot) were sprayed by an automated electrostatic plant sprayer equipped with an atomizing spray nozzle. The plants were dried in the sprayer fume hood and then removed from the sprayer. Each pot was pla-ced into a plastic cup and about 10 to 12 whitefly adults (approximately 3-5 days old) were introduced. The insects were collected using an aspirator and a nontoxic Tygon® tubing connected to a barrier pipette tip. The tip, containing the collected insects, was then gently inserted into the soil containing the treated plant, allowing insects to crawl out of the tip to reach the foliage for feeding. Cups were covered with a reusable screened lid. Test plants were maintained in a growth room at about 25° C. and about 20-40% relative humidity for 3 days, avoiding direct exposure to fluorescent light (24 hour photoperiod) to prevent trapping of heat inside the cup. Mortality was assessed 3 days after treatment, compared to untreated control plants.

[3] = system: Southern Armyworm (Spodoptera eridania), 2nd Instar Larvae; experiment: Action on southern armyworm (Spodoptera eridania), 2nd instar larvae on sprayed lima bean plants; conditions: 96 h, 2nd instar larvae on lima bean plants, 4 days after treatment, read-out: mortality in comparison with untreated controls
Description: Example B7: Action on Southern Armyworm (Spodoptera eridania), 2nd Instar Larvae
The active compounds were formulated by a Tecan liquid handler in 100% cyclohexanone as a 10,000 ppm solution supplied in tubes. The 10,000 ppm solution was serially diluted in 100% cyclohexanone to make interim solutions. These served as stock solutions for which final dilutions were made by the Tecan in 50% acetone:50% water (v/v) into 10 or 20 ml glass vials. A nonionic surfactant (Kinetic®) was included in the solution at a volume of 0.01% (v/v). The vials were then inserted into an automated electrostatic sprayer equipped with an atomizing nozzle for application to plants/insects.
Lima bean plants (variety Sieva) were grown 2 plants to a pot and selected for treatment at the 1st true leaf stage. Test solutions were sprayed onto the foliage by an automated electrostatic plant sprayer equipped with an atomizing spray nozzle. The plants were dried in the sprayer fume hood and then removed from the sprayer. Each pot was placed into perforated plastic bags with a zip closure. About 10 to 11 armyworm larvae were placed into the bag and the bags zipped closed. Test plants were maintained in a growth room at about 25° C. and about 20-40% relative humidity for 4 days, avoiding direct exposure to fluorescent light (24 hour photoperiod) to prevent trapping of heat inside the bags. Mortality and reduced feeding were assessed 4 days after treatment, compared to untreated control plants.

[4] = system: boll weevil (Anthonomus grandis); experiment: Action on boll weevil (Anthonomus grandis), eggs on insect diet in microtiter plates; conditions: 120 h, egg and larval mortality after 5 days, read-out: mortality in comparison with untreated controls
Description: Example B3: Action on Boll Weevil (Anthonomus grandis)
For evaluating control of boll weevil (Anthonomus grandis) the test unit consisted of 96-well-microtiter plates containing an insect diet and 5-10 A. grandis eggs.
The compounds were formulated using a solution containing 75% v/v water and 25% v/v DMSO. Different concentrations of formulated compounds were sprayed onto the insect diet at 5 μl, using a custom built micro atomizer, at two replications.
After application, microtiter plates were incubated at about 25±1° C. and about 75±5% relative humidity for 5 days. Egg and larval mortality was then visually assessed.

[5] = system: Orchid thrips (Dichromothrips corbetti); experiment: Action on orchid thrips (Dichromothrips corbetti), floral-immersion technique; conditions: adult thrips, mortality 72 hours after treatment, read-out: mortality in comparison with untreated controls
Description: Example B2: Action on Orchid thrips (Dichromothrips corbetti)
Dichromothrips corbetti adults used for bioassay were obtained from a colony maintained continuously under laboratory conditions. For testing purposes, the test compound is diluted in a 1:1 mixture of acetone:water (vol:vol), plus Kinetic® HV at a rate of 0.01% v/v.
Thrips potency of each compound was evaluated by using a floral-immersion technique. All petals of individual, intact orchid flowers were dipped into treatment solution and allowed to dry in Petri dishes. Treated petals were placed into individual re-sealable plastic along with about […]. All test arenas were held under continuous light and a temperature of about 28° C. for duration of the assay. After 3 days, the numbers of live thrips were counted on each petal. The percent mortality was recorded 72 hours after treatment.

[6] = system: Diamond Back Moth (Plutella xylostella); experiment: Action on diamond back moth (Plutella xylostella), cabbage leaf dip; conditions: foliar, 3rd instar larvae on dipped cabbage leaves, mortality 72 hours after treatment, read-out: mortality in comparison with untreated controls
Description: Example B6: Action on Diamond Back Moth (Plutella xylostella)
The active compound is dissolved at the desired concentration in a mixture of 1:1 (vol:vol) distilled water:acetone. Surfactant (Kinetic® HV) is added at a rate of 0.01% (vol/vol). The test solution is prepared at the day of use.
Leaves of cabbage were dipped in test solution and air-dried. Treated leaves were placed in petri dishes lined with moist filter paper and inoculated with ten 3rd instar larvae. Mortality was recorded 72 hours after treatment. Feeding damages were also recorded using a scale of 0-100%.

[7] = system: tobacco budworm (Heliothis virescens); experiment: Action on tobacco budworm (Heliothis virescens), eggs on insect diet in microtiter plates; conditions: 120 h, egg and larval mortality after 5 days, read-out: mortality in comparison with untreated controls
Description: Example B5: Action on Tobacco Budworm (Heliothis virescens)
For evaluating control of tobacco budworm (Heliothis virescens) the test unit consisted of 96-well-microtiter plates containing an insect diet and 15-25 H. virescens eggs.
The compounds were formulated using a solution containing 75% v/v water and 25% v/v DMSO. Different concentrations of formulated compounds were sprayed onto the insect diet at 10 μl, using a custom built micro atomizer, at two replications.
After application, microtiter plates were incubated at about 28±1° C. and about 80±5% relative humidity for 5 days. Egg and larval mortality was then visually assessed.

CO[C@@H]1[C@@H](OC)[C@H](C)O[C@@H](OC(=O)Nc2ccc3c(C(=O)Nc4ccc(OC(F)(F)F)cc4)nn(C)c3c2)[C@@H]1OC [Example C-6, [(2S,3R,4R,5S,6S)-3,4,5-trimethoxy-6-methyl-tetrahydropyran-2-yl] N-[1-methyl-3-[[4-(trifluoromethoxy)phenyl]carbamoyl]indazol-6-yl]carbamate]
≥ 75%: mortality at 800 ppm [1] | mortality at 300 ppm [2] | mortality at 300 ppm [3] | mortality at 800 ppm [4] | mortality at 500 ppm [5] | mortality at 500 ppm [6] | mortality at 800 ppm [7]

CC(C)c1ccccc1NC(=S)N/N=C/c1ccc2c(C(C)Oc3ccc(OC(F)(F)F)cc3)nn(C)c2c1 (centres unmarked) [Example C-12, 1-(2-isopropylphenyl)-3-[(E)-[1-methyl-3-[1-[4-(trifluoromethoxy)phenoxy]ethyl]indazol-6-yl]methyleneamino]thiourea]
≥ 75%: mortality at 800 ppm [1] | mortality at 300 ppm [2] | mortality at 300 ppm [3] | mortality at 800 ppm [4] | mortality at 500 ppm [5] | mortality at 500 ppm [6] | mortality at 800 ppm [7]
